The target of experiment [1] is T1, TrXyn1 (Trichoderma reesei, UniProt P36218).
T1 construct: gene xyn1; natural single-domain GH11 enzyme, homologously produced and purified from T. reesei culture supernatant
T1 sequence (P36218 52-229): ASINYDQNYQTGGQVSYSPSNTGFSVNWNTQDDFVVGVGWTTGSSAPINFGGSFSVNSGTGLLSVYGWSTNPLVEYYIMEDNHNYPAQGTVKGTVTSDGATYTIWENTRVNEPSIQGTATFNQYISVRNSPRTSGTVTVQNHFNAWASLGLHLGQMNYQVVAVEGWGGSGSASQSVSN
The experiment is described as follows: birch wood xylan hydrolysis yield, reducing sugars by PAHBAH. The experiment is classed as biochemical. The note with it: tested at 10, 100 and 1000 µg/ml; 1% xylan, 50 mM Na-citrate pH 5, 40 or 50 °C; concentration of the printed value not given.

For experiment [2], the target named is T2, TrXyn2 (Trichoderma reesei, UniProt P36217).
T2 construct: gene xyn2; natural single-domain GH11 enzyme, homologously produced and purified from T. reesei culture supernatant
The description is as above. The experiment is classed as biochemical. Conditions: tested at 10, 100 and 1000 µg/ml; 1% xylan, 50 mM Na-citrate pH 5, 40 or 50 °C.

The source of these data is article PMC9107766, “Inhibitory effect of lignin on the hydrolysis of xylan by thermophilic and thermolabile GH11 xylanases” (Biotechnology for Biofuels and Bioproducts, 2022).

T2 sequence (P36217 34-223): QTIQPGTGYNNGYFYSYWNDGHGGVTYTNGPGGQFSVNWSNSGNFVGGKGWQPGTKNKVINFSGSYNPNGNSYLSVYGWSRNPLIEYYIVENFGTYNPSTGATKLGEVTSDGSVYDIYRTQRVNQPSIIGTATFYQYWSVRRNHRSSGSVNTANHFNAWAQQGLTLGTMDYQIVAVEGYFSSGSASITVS

For the molecule `COc1cc(C=O)cc(OC)c1O` [syringaldehyde], the “% reduction in the hydrolysis yield” value in experiment [1] came out at 50%. Further, the “reduction in hydrolysis yield” value in experiment [2] is given as “only syringaldehyde showed a clear inhibitory effect on the hydrolysis for all the tested xylanases”.
